Source: patent US10568897B2, “Bidens pilosa and polyacetylenic compounds for prevention and treatment of coccidiosis” (ACADEMIA SINICA, priority 2011, dated 2020)

System: E. tenella
Assay: Eimeria infection (coccidiosis) in chickens: survival, body weight, clinical symptoms, gut lesions, excreted oocysts
Format: in vivo
Details: for Body weight Day 21: diet with 6 mg/kg maduramicin or 50 g/kg BPP for 7 days, 6 mg/kg
Procedure: FIGS. 3 A-F show the effect of BPP on the survival rate (FIG. 3A), sick bird appearance (FIG. 3B) and clinical symptoms (FIG. 3C) in the chickens. One-day-old chickens were fed with control diet for 14 days. On day 14, the birds were infected with vehicle (CTR) or E. tenella (ET) and fed with control diet (CTR and ET groups) and the diet containing 6 mg/kg maduramicin (ET+Mad), or 5%, or 1%, or 0.5% of BPP (ET+BPP) for additional 7 days. After the birds were sacrificed, the cecum was dissected and fixed for hematoxylin and eosin Y staining. The representative images of cecal hemorrhagic lesions (FIG. 3D) and histopathology (FIG. 3E) are shown.
One-d-old Lohmann broiler chicks hatched at Taichung Hatchery (Taiwan) were wing-banded upon arrival, weighed, and randomly placed in Petersime starter brooder units. At 1 and 2 d post-hatch, the birds were given free access to water and diets. The diets were formulated by mixing the base diet (Chicken feed, Taiwan Sugar Corporation) with carrier alone (control diet) or the indicated dose of B. pilosa power (BPP diet). In case of cytopiloyne experiments, the animal was administered with 45 μg of isolated cytopiloyne each day. After grouping, birds were tube-fed with Eimeria oocysts. Growth performance (body weight and feed conversion), pathology (bloody droppings and gut morphometry) and survival rate were measured and examined. All birds were maintained in the institutional animal facility and handled according to the guidelines of the Academia Sinica Institutional Animal Care and Utilization Committee.
Since B. pilosa was claimed to treat protozoan and bacterial infections, we tested whether B. pilosa could protect the chickens from coccidiosis. To this end, we infected the […] birds with vehicle and Eimeria oocysts. The birds were given control diet, the control diet mixed with maduramicin, a commercial anti-coccidial, and 10% BPP diet. […] In contrast, 60% of the birds with Eimeria infection survived 7 days post-infection (FIG. 3A). However, treatment with a dose (6 mg/k) of maduramicin and a dose (50 g/kg) of […] BPP increased the survival rate of the birds with Eimeria infection by 30% (FIG. 3A). […] However, treatment with maduramicin and BPP increased body weight from 132.5 g to 145.4 g and 154.3 g. respectively (Table 2). […] One-d-old chickens were fed with control diet for 14 days. On day 14, the birds were infected with vehicle (CTR) or E. tenella (ET) and fed with control diet (CTR and ET groups) and the diet containing 6 mg/kg maduramicin (ET+Mad) or 50 g/kg BPP (E+T BPP) for additional 7 days. Body weight was measured. The number of the birds in each group is indicated in the parentheses.
Next, we checked clinical symptoms of the chickens with or without Eimeria infection. […] In contrast, the birds with Eimeria infection show the typical sick bird appearances (FIG. 3B). […] In contrast, treatment with maduramicin or BPP reduced bloody droppings and diarrhea (FIG. 3C).
The gut lesions of the birds 7 days post-infection were also examined. Hemorrhagic lesions in the cecum of the birds infected with Eimeria oocysts were observed (FIG. 3D). In contrast, treatment with maduramicin and BPP alleviated the severity of hemorrhagic lesions (FIG. 3D).
The excretion of oocysts is an important indicator of the efficacy of anti-coccidial drug. Thus, we assessed the number of excreted oocysts from the chickens with Eimeria infection. […] The data on the effect of BPP on the reduction of the excreted oocysts are consistent with the alleviation of the clinical symptoms by BPP. […] One-d-old chickens were fed with control diet for 14 days. On day 14, the birds were infected with vehicle (CTR) or E. tenella (ET) and fed with control diet (CTR and ET groups) and the diet containing 6 mg/kg maduramicin (ET+Mad) or 50 g/kg BPP (ET+BPP) for additional 7 days. The number of the excreted oocysts in the feces (oocysts per gram) of the birds was determined. […]

[1] = E. tenella infected on day 14, diet with 6 mg/kg maduramicin or 50 g/kg BPP
[2] = Eimeria infected birds given diet with maduramicin or BPP

Question: `CO[C@@H]1[C@@H](OC)[C@H](C)[C@@](O)(CC(=O)O)O[C@H]1[C@H](C)[C@H]1O[C@@]2(CC[C@@](C)([C@H]3CC[C@@](C)([C@@H]4O[C@@H]([C@H]5O[C@](C)(O)[C@H](C)C[C@@H]5C)C[C@@H]4O[C@@H]4C[C@H](OC)[C@@H](OC)[C@H](C)O4)O3)O2)C[C@H](O)[C@H]1C` [maduramicin, Maduramicin] was tested. Which “Number of the excreted oocysts in the infected birds” value (6 mg/kg maduramicin or 50 g/kg BPP diet) did it give?
Answer: The value was “reduced half”.

Question: What about the “Severity of hemorrhagic lesions in the cecum” value (7 days post-infection) of the same compound?
Answer: The value was “alleviated”.

Question: What about the “Number of villi and depth of crypts in the gut” value (7 days post-infection, histostaining) of the same compound?
Answer: Its value is “increased”.

Question: And the “Excreted oocysts in the feces Day 4” value [1]?
Answer: Its value is 5 ± 0.3 oocysts per gram.

Question: What about the “Excreted oocysts in the feces Day 5” value [1] of the same compound?
Answer: The value was 78 ± 3.8 oocysts per gram.

Question: And the “Excreted oocysts in the feces Day 6” value [1]?
Answer: The value was 187 ± 4.7 oocysts per gram.

Question: What about the “Excreted oocysts in the feces Day 7” value [1] of the same compound?
Answer: Its value is 343 ± 52.2 oocysts per gram.

Question: And the “Body weight Day 21” value (E. tenella infected on day 14)?
Answer: The value was 145.4 g.

Question: What about the “Body weight Day 21” value (E. tenella infected on day 14, listed as Mad) of the same compound?
Answer: The value was 145.4 ± 6.2 g.

Question: And the “Bloody droppings and diarrhea” value [2]?
Answer: Its value is “reduced”.

Question: And the “Sick bird appearance (droopiness, listlessness, ruffled feather)” value [2]?
Answer: Its value is “no obvious sick bird appearance”.
